Results taken from US9060988B2, “Method for treating pulmonary fibrosis using a pharmaceutical composition containing stanniocalcin 1 (STC1)” (Tohoku University, priority 2011, dated 2015).

Tests used:
[1] = test system: bleomycin pulmonary fibrosis model; test: Fibrillization suppressing effect in bleomycin pulmonary fibrosis model mouse (histopathologic staining of lung); type: in vivo, C57BL6/J mice; set-up: key to 8OHDG (extent of peroxides accumulation) / HE (fibrillization) / EM (fibrillization): −: not observed; +: mild; ++: moderate; +++: severe; details: for 8OHDG staining of lung tissue (amount of peroxides, FIG. 7) / fibrillization (HE and EM stained images, FIGS. 1 to 5): bleomycin model; for 8OHDG staining of lung tissue (amount of peroxides, FIG. 7): extent similar to that of the normal lung group; for fibrillization (HE and EM stained images, FIGS. 1 to 5) / response on progression of pulmonary fibrosis: intratracheal administration; for fibrillization (HE and EM stained images, FIGS. 1 to 5): versus saline control group in which fibrillization was induced; for response on progression of pulmonary fibrosis: bleomycin pulmonary fibrosis model; for 8OHDG (extent of peroxides accumulation) / EM (fibrillization) / HE (fibrillization): lung tissue, one week after intratracheal administration together with bleomycin, STC1 500 ng, NAC 3 mg; for 8OHDG (extent of peroxides accumulation): 8OHDG staining; for EM (fibrillization): Elastica-Masson staining; for HE (fibrillization): HE staining
Description: The action of STC1 was investigated using a pulmonary fibrosis model utilizing the mitotic inhibitory action of an anticancer agent, bleomycin (Bleo), as the disease model mouse.
Human recombinant (r) STC1 was produced by BioVender, Inc. Specifically, human-derived STC1 gene added with a TAG structure was introduced into the 293 cells, and rSTC1 was separated using the TAG sequence.
Specifically, C57BL6/J mice (female, 10 weeks old), four animals in each group, were anesthetized by intraperitoneally administering an anesthetic agent (obtained by diluting 300 μg of ketamine hydrochloride and […] of xylazine in 100 μL of physiological saline). Thereafter, the cervix was cut open to expose a trachea, and the jacket of a 23G SURFLO needle was inserted into the trachea. Then, the following drugs were respectively administered intratracheally through the SURFLO jackets to the mice of each group.
(1) Saline control group: 50 μL of bleomycin-containing physiological saline (bleomycin concentration: 400 ng/mL)
(2) STC1-administered group: 500 ng of STC1+50 μL of bleomycin-containing physiological saline
(3) NAC-administered group (positive control): 3 mg of NAC+50 μL of bleomycin-containing physiological saline
(4) Normal lung group: 50 μL of physiological saline
After one week, the mice were euthanized by anesthetizing the mice as described above and then cutting the carotid artery, and subsequently, the lungs were removed. The extirpated lung tissues were subjected to histopathologic staining (HE (hematoxylin eosin) staining, EM (Elastica-Masson staining), and 8OHDG staining) by standard methods.

[2] = literature report; cited from earlier work

Molecule | 8OHDG staining of lung tissue (amount of peroxides, FIG. 7) [1] | fibrillization (HE and EM stained images, FIGS. 1 to 5) [1] | response on progression of pulmonary fibrosis [1] | 8OHDG (extent of peroxides accumulation) [1] | EM (fibrillization) [1] | HE (fibrillization) [1] | suppression of the immune system [2]
CC(=O)N[C@@H](CS)C(=O)O [NAC, N-acetylcysteine, reference compound] | poorly stained | fibrillization was suppressed | amelioration | + | +~++ | +~++ | 
Stanniocalcin 1 [STC1] | poorly stained | fibrillization was suppressed | complete response | + | + | + | does not cause suppression of the immune system
